Several values for one entry are separate records, joined by “and”; a condition that tells them apart may be missing. Equal values may be shown once.
Columns and labels:
human tumor xenografts = conditions: in mice, against human tumor xenografts; cited from earlier work
[1] = Determination of PK parameters after oral administration to nude mice; format: in vivo
Description: The determination of PK parameters of crystalline CZ48 hydrate. Pharmacokinetic profile of crystalline camptothecin-20-O-propionate hydrate with a single dose of 2000 mg/kg was recorded following an oral administration to nude mice. […] Camptothecin-20-O-acetate, an analogue of CZ48 which was not a crystalline hydrate, was used as an internal standard for determining all PK parameters of the CZ48 hydrate. A 100 μL plasma from the mouse treated with crystalline CZ48 hydrate at dose of 2000 mg/kg was transferred into a 2-mL test-tube, and then 100 μL of internal-standard working solution (400 ng/mL) was also added to the tube. To the mixture, were also added 200 μL of 1% acetic acid solution and 1 mL ethyl ether. After vortex-mixing for 10 s, the mixture was incubated at room temperature on a shaker for 10 min, and then centrifuged at 10,000×g for 15 min. The upper layer obtained from the centrifugation was transferred into a clean tube and evaporated to dryness using an evaporator at 40° C. under a stream of nitrogen. The residue was reconstituted in 200 μL of water/acetonitrite (50/50, v/v) solvent system, and a 20-μL portion of the aliquot was injected into HPLC system for analysis. For the study, A 100 μL blank plasma from untreated mouse was also processed in the same manner as the treated.

[2] = Pharmacokinetics for CPT in human plasma (lactone ring intact); format: in vitro ADME; conditions: read-out: half-life time of the drug with the lactone ring intact
human xenografts = assay: In vivo anti-tumor activity against human tumor xenografts in nude mice (all lines); conditions: oral, cottonseed oil suspension, 5 days-on and 2 days-off schedule
Text: (§1) In vivo anti-tumor activity determination. The human tumors used in the experiments discussed herein included 1 bladder line, 3 breast lines, 4 colon lines, 1 DSRCT line, 1 kidney line, 2 melanoma lines, 2 lung lines, 7 pancreatic lines, and 1 prostate line. The hydrated crystalline CZ48 drug was finely suspended in cottonseed oil and stored in a refrigerator for using. The suspension was orally administered to the mice bearing human tumors once a day continuously for 5 days on and 2 days off or once a day for seven days for the whole treatment period. The treatment period for the various tumor lines varied, ranging from two weeks to one year. […] With the continuous schedule (daily treatment), one of those two negatively responded pancreatic tumor lines under the 5/2 schedule achieved the positive response.
(§2) In vivo anti-tumor activity determination. All the animal experiments were performed on nude Swiss mice of the NIH, high-fertility strain. They were bred and raised in laboratory under strict pathogen-free conditions. For anti-tumor activity determination, a tumor xenograft growing in a nude mouse, approximately 1 cm^3 in size, was surgically removed under sterile conditions, finely minced with iridectomy scissors, and suspended in cell culture medium at the ratio 1:10, v/v. […] Tumors growing in animals were checked and measured with a caliper once a week. […]

human Colon tumor lines = assay: Anti-tumor activity, colon tumor xenografts in nude mice; format: in vivo; conditions: oral
Text: as §1, §2

human Breast tumor lines = assay: Anti-tumor activity, breast tumor xenografts in nude mice; format: in vivo; conditions: oral
Text: as §1, §2

human Lung tumor lines = assay: Anti-tumor activity, lung tumor xenografts in nude mice; format: in vivo; conditions: oral
Text: as §1, §2

human Melanoma lines = assay: Anti-tumor activity, melanoma xenografts in nude mice; format: in vivo; conditions: oral
Text: as §1, §2

[3] = tested on: human Pancreas tumor lines; assay: Anti-tumor activity, pancreatic tumor xenografts in nude mice; format: in vivo; conditions: oral
Text: as §1
In vivo anti-tumor activity determination. All the animal experiments were performed on nude Swiss mice of the NIH, high-fertility strain. They were bred and raised in laboratory under strict pathogen-free conditions. For anti-tumor activity determination, a tumor xenograft growing in a nude mouse, approximately 1 cm^3 in size, was surgically removed under sterile conditions, finely minced with iridectomy scissors, and suspended in cell culture medium at the ratio 1:10, v/v. One half of 1 mL of this suspension, containing about 50 mg of wet-weight tumor mince was subcutaneously inoculated on the upper half of the dorsal thorax of the mouse. Groups of four or five animals were used. Hydrated crystalline CZ48 was finely suspended in cottonseed oil and then injected into the stomach cavity of the mouse through the anterior abdominal wall using a 26 gauge needle. The weekly schedule used for oral administration of hydrated crystalline CZ48 was once a day for 7 days, or five days on and two days off. This schedule was employed throughout all the animal experiments. […] Tumors growing in animals were checked and measured with a caliper once a week. […]

human Bladder tumor line = assay: Anti-tumor activity, bladder tumor xenografts in nude mice; format: in vivo; conditions: oral
Text: as §1, §2

human DSRCT line = assay: Anti-tumor activity, DSRCT xenografts in nude mice; format: in vivo; conditions: oral
Text: as §1, §2

BOL bladder tumor line = assay: Effective dose, BOL xenograft in nude mice; format: in vivo, human; conditions: oral, dose giving positive response
Description: (§3) In vivo anti-tumor activity determination. All the animal experiments were performed on nude Swiss mice of the NIH, high-fertility strain. They were bred and raised in laboratory under strict pathogen-free conditions. For anti-tumor activity determination, a tumor xenograft growing in a nude mouse, approximately 1 cm^3 in size, was surgically removed under sterile conditions, finely minced with iridectomy scissors, and suspended in cell culture medium at the ratio 1:10, v/v. One half of 1 mL of this suspension, containing about 50 mg of wet-weight tumor mince was subcutaneously inoculated on the upper half of the dorsal thorax of the mouse. Groups of four or five animals were used. Hydrated crystalline CZ48 was finely suspended in cottonseed oil and then injected into the stomach cavity of the mouse through the anterior abdominal wall using a 26 gauge needle. The weekly schedule used for oral administration of hydrated crystalline CZ48 was once a day for 7 days, or five days on and two days off. This schedule was employed throughout all the animal experiments. Treatment was initiated when the tumor had reached a volume of about 200 mm^3, i.e., well-vascularized, measurable, and growing exponentially. Tumors growing in animals were checked and measured with a caliper once a week. The effective doses were established when a positive response in mouse was reached.

CLO-breast carcinoma = assay: Effective dose, CLO xenograft in nude mice; format: in vivo, human; conditions: oral
Description: as §3

MUR breast tumor line = assay: Effective dose, MUR xenograft in nude mice; format: in vivo, human; conditions: oral, dose giving positive response
Description: as §3

WAR breast tumor line = assay: Effective dose, WAR xenograft in nude mice; format: in vivo, human; conditions: oral, dose giving positive response
Description: as §3

HT29 colon tumor line = assay: Effective dose, HT29 xenograft in nude mice; format: in vivo, human; conditions: oral, dose giving positive response
Description: as §3

McC colon tumor line = assay: Effective dose, McC xenograft in nude mice; format: in vivo, human; conditions: oral, dose giving positive response
Description: as §3

SQU colon tumor line = assay: Effective dose, SQU xenograft in nude mice; format: in vivo, human; conditions: oral, dose giving positive response
Description: as §3

SW48 colon tumor line = assay: Effective dose, SW48 xenograft in nude mice; format: in vivo, human; conditions: oral, dose giving positive response
Description: as §3

MYE DSRCT line = assay: Effective dose, MYE xenograft in nude mice; format: in vivo, human; conditions: oral, dose giving positive response
Description: as §3

CAK-kidney = assay: Effective dose, CAK xenograft in nude mice; format: in vivo, human; conditions: oral, dose giving positive response
Description: as §3

DOY lung tumor line = assay: Effective dose, DOY xenograft in nude mice; format: in vivo, human; conditions: oral, dose giving positive response
Description: as §3

SPA lung tumor line = assay: Effective dose, SPA xenograft in nude mice; format: in vivo, human; conditions: oral, dose giving positive response
Description: as §3

BRO melanoma line = assay: Effective dose, BRO xenograft in nude mice; format: in vivo, human; conditions: oral, dose giving positive response
Description: as §3

FOSS melanoma line = assay: Effective dose, FOSS xenograft in nude mice; format: in vivo, human; conditions: oral, dose giving positive response
Description: as §3

[4] = tested on: ASPC1 pancreas tumor line; assay: Effective dose, ASPC1 xenograft in nude mice; format: in vivo, human; conditions: oral, dose giving positive response
Description: as §3

[5] = tested on: HS766T pancreas tumor line; assay: Effective dose, HS766T xenograft in nude mice; format: in vivo, human; conditions: oral, dose giving positive response
Description: as §3

LIE pancreas tumor line = assay: Effective dose, LIE xenograft in nude mice; format: in vivo, human; conditions: oral, dose giving positive response
Description: as §3

[6] = tested on: MiaPaCa2 pancreas tumor line; assay: Effective dose, MiaPaCa2 xenograft in nude mice; format: in vivo, human; conditions: oral, dose giving positive response
Description: as §3

PANC1-pancreas = assay: Effective dose, PANC1 xenograft in nude mice; format: in vivo, human; conditions: oral, dose giving positive response
Description: as §3

SU86.86-pancreas = assay: Effective dose, SU86.86 xenograft in nude mice; format: in vivo, human; conditions: oral, dose giving positive response
Description: as §3

[7] = tested on: PC3P62 prostate tumor line; assay: Effective dose, PC3P62 xenograft in nude mice; format: in vivo, human; conditions: oral, dose giving positive response
Description: as §3

[8] = In vivo toxicity determination (body weight) in nude mice; conditions: continuously for 60 days
Description: In vivo toxicity determination. Groups of 4 or 5 animals of about the same age and having similar weights were chosen and treated with crystalline CZ48 hydrate orally at doses of 1500 mg/kg and 2000 mg/kg, respectively, continuously for 60 days. The 3 groups of mice chosen for the toxicity studies were healthy, of similar age and weights, and non-tumor-bearing. One group was used as control, and the other two groups were treated with the drug at two high-dose levels, 1500 mg/kg and 2000 mg/kg respectively, for about two months. The body weight changes in animals during the treatment were recorded for the treated group versus the untreated group beginning at day 0 and ending at the 60th day.
The body-weight loss was used as a parameter to measure the toxicity of the agent. Usually, body weight loss of 10% or more in mice during treatment is considered a sign of toxicity. Greater body-weight loss signifies greater toxicity.

[9] = In situ single-pass intestinal perfusion, percentage absorption in mouse; format: in vivo, nude mice
Description: The determination of percentage absorption of crystalline CZ48 hydrate in mouse. Absorption studies were also performed with crystalline camptothecin-20-O-propionate hydrate by using a mouse perfusion procedure on 4 nude mice. Prior to the in situ single-pass perfusion procedure, HBSS buffer (pH 7.4) consisting of 9.801 g/L HBSS powders, 0.372 g/L NaHCO3, 3.502 g/L glucose, 5.963 g/L HEPES, and 1.164 g/L NaCl was prepared and stored in a refrigerator. The perfusate for the procedure was prepared by mixing a certain amount of the drug, crystalline CZ48 hydrate, with an amount of HBSS buffer. The mixture was heated up to 37° C. (body temperature) right before use. A group of 4 mice with weights ranging from 25 to 30 grams and ages ranging from 9 to 11 months were anesthetized and placed onto a heating plate. The plate was maintained a constant temperature of 37° C. After a perfusion system was set ready with a mouse, two segments of the intestine (small intestine, IS, and colon) were simultaneously perfused with the freshly prepared perfusate. The pump was maintained at a constant flow-rate of 0.191 mL/min for the whole perfusion. Two perfusate samples were collected from each outlet (SI tract or colon) every 30 min. The concentrations of the drug in perfusate from the outlets were determined by HPLC analysis, and the corresponding percentage absorptions were calculated relative to the starting amount of the drug and shown in Table 5.

## CC[C@@]1(O)C(=O)OCc2c1cc1n(c2=O)Cc2cc3c([N+](=O)[O-])cccc3nc2-1 [9-nitrocamptothecin]
Human tumor xenografts
  potency relative to CPT: 2-3 times

## CC[C@@]1(O)C(=O)OCc2c1cc1n(c2=O)Cc2cc3ccccc3nc2-1 [CPT, camptothecin, reference compound]
[1]; mice, oral hydrated crystalline CZ48 2000 mg/kg, plasma, CPT = major metabolite
  Ke: 0.40 ± 0.13 h⁻¹
[2]
  half-life: ~30 min

## CCC(=O)O[C@]1(CC)C(=O)OCc2c1cc1n(c2=O)Cc2cc3ccccc3nc2-1 [hydrated crystalline CZ48, crystalline camptothecin-20-O-propionate hydrate]
Human xenografts
  tumor lines that achieved positive response (greater than 50% inhibition in tumor-growth inhibition): 18 lines
Human Colon tumor lines
  Response Positive (inhibition of growth bigger than 50%), lines responding/tested: 4/4
Human Breast tumor lines
  Response Positive (inhibition of growth bigger than 50%), lines responding/tested: 3/3
Human Lung tumor lines
  Response Positive (inhibition of growth bigger than 50%), lines responding/tested: 2/2
Human Melanoma lines
  Response Positive (inhibition of growth bigger than 50%), lines responding/tested: 2/2
[3]; Pancreas, nude mice
  Response Negative (inhibition of growth smaller than 50%), lines/tested: 1/7
  Response Positive (inhibition of growth bigger than 50%), lines responding/tested: 6/7
[3]; 5 days-on and 2 days-off schedule
  pancreatic tumor lines that failed to obtain the positive response: 2 lines
Human Bladder tumor line
  Response Positive (inhibition of growth bigger than 50%), lines responding/tested: 1/1
Human DSRCT line
  Response Positive (inhibition of growth bigger than 50%), lines responding/tested: 1/1
BOL bladder tumor line
  Effective dose: 200 mg/kg
CLO-breast carcinoma; CLO (Breast), nude mice, dose giving positive response
  Effective dose: 4 mg/kg
CLO-breast carcinoma; CLO-breast carcinoma, dose 4 mg/kg
  tumor growth inhibition: complete inhibition
MUR breast tumor line
  Effective dose: 300 mg/kg
WAR breast tumor line
  Effective dose: 200 mg/kg
HT29 colon tumor line
  Effective dose: 50 mg/kg
McC colon tumor line
  Effective dose: 300 mg/kg
SQU colon tumor line
  Effective dose: 30 mg/kg
SW48 colon tumor line
  Effective dose: 100 mg/kg
MYE DSRCT line
  Effective dose: 100 mg/kg
CAK-kidney
  Effective dose: 1000 mg/kg
DOY lung tumor line
  Effective dose: 15 mg/kg
SPA lung tumor line
  Effective dose: 100 mg/kg
BRO melanoma line
  Effective dose: 100 mg/kg
FOSS melanoma line
  Effective dose: 300 mg/kg
[4]
  Effective dose: 300 mg/kg
[5]
  Effective dose: 100 mg/kg
LIE pancreas tumor line
  Effective dose: 100 mg/kg
[6]
  Effective dose: 100 mg/kg
PANC1-pancreas
  Effective dose: 1000 mg/kg
SU86.86-pancreas
  Effective dose: 1000 mg/kg
[7]
  Effective dose: 300 mg/kg
[8]; 1500 mg/kg and 2000 mg/kg orally, non-tumor-bearing mice
  toxicity in the treated mice: no noticeable toxicity
[8]; oral, implied from no significant body-weight loss
  dose mice could tolerate: higher than 2000 mg/kg
[1]; nude, mouse, in vivo, po, 2000 mg/kg
  AUC(0-t): 1930 ± 114 ng·h/mL
[9]; colon, average of 4 mice
  % Crystalline CZ48 Hydrate Absorptions, Colon, Ave: −19.46%
[9]; colon, individual mice No. 1-4, HBSS pH 7.4, 37° C., 0.191 mL/min, listed as Crystalline CZ48 Hydrate, hydrate
  % Crystalline CZ48 Hydrate Absorptions, Colon: 8.04% and −35.17% and −73.24% and 6.82%
[9]; small intestine, average of 4 mice
  % Crystalline CZ48 Hydrate Absorptions, SI, Ave: 22.23%
[9]; small intestine, individual mice No. 1-4, HBSS pH 7.4, 37° C., 0.191 mL/min, listed as Crystalline CZ48 Hydrate, hydrate
  % Crystalline CZ48 Hydrate Absorptions, SI: 11.49% and 16.51% and 9.34% and 45.85%

— patent US7572803B2 (The Christus Stehlin Foundation for Cancer Research, priority 2007, dated 2009)
